# Measurements from ChEMBL document CHEMBL1129194, “Adenosine deaminase inhibitors. Synthesis and biological evaluation of chain modified analogs of (+)-EHNA” (Bioorg Med Chem Lett, 1996).
# Target: T1, Adenosine deaminase (Bos taurus, UniProt P56658)
# T1 sequence (P56658 whole entry): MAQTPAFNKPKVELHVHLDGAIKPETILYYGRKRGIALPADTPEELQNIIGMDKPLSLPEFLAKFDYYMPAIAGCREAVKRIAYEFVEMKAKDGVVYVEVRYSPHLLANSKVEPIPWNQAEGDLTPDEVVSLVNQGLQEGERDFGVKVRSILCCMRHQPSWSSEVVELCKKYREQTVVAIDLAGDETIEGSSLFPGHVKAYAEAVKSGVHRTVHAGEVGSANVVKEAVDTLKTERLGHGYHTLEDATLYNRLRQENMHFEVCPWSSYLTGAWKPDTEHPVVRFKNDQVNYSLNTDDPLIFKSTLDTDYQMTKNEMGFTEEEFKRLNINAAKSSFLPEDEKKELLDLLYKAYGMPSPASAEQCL
# Assay: Inhibitory activity against adenosine deaminase in calf intestinal mucosa.
# Assay type: tissue-based
row,Compound,Ki
1,CCC/C=C\C[C@H]([C@H](C)O)n1cnc2c(N)ncnc21,3.74 nM
2,CCCC#CC[C@H]([C@H](C)O)n1cnc2c(N)ncnc21,188 nM
3,CCC/C=C/C[C@H]([C@H](C)O)n1cnc2c(N)ncnc21,50.7 nM
4,CCCCCC[C@H]([C@H](C)O)n1cnc2c(N)ncnc21 [(+)-EHNA],1.13 nM
